Experimental data published in patent publication US7812026B2, “Imidazole derivatives having a positive allosteric GABAB receptor modulator effect and methods of use” (AstraZeneca AB, priority 2005, dated 2010).

Molecular target: T1, GABAB receptor (Homo sapiens, UniProt O75899+Q9UBS5)
T1 construct: expressed in transfected cells; host or cells: CHO cells (membranes)
Assay: [35S]-GTPγS binding assay, potency of PAM
Format: biochemical
Conditions: potency of the positive allosteric modulator; log EC50 for GABA plotted against log concentration of modulator
Method: [^35S]-GTPγS binding assays were performed at 30° C. for 45 min in membrane buffer (100 mM NaCl, […], 1 mM EDTA, 50 mM HEPES, pH 7.4) containing 0.025 μg/μl of membrane protein (prepared from the cell lines described above) with 0.01% bovine serum albumin (fatty acid free), 10 μM GDP, 100 μM DTT and 0.53 nM [^35S]-GTPγS (Amersham-Pharmacia Biotech) in a final volume of 200 μl. Nonspecific binding was determined in the presence of 20 μM GTPγS. The reaction was started by the addition of GABA at concentration between 1 mM and 0.1 nM in the presence or absence of the required concentration of PAM. The reaction was terminated by addition of ice-cold wash buffer (50 mM Tris-HCl, 5 mM MgCl2, 50 mM NaCl, pH 7.4) followed by rapid filtration under vacuum through Printed Filtermat A glass fiber filters (Wallac) (0.05% PEI treated) using a Micro 96 Harvester (Skatron Instruments). The filters were dried for 30 min at 50° C., then a paraffin scintillant pad was melted onto the filters and the bound radioactivity was determined using a 1450 Microbeta Trilux (Wallac) scintillation counter.
GABA dose-response curves in the presence and absence of test compounds were constructed using the 4-parameter logistic equation, y=ymax+((ymin−ymax)/1+(x/C)^D), where C=EC50 and D=slope factor.
The potency of PAM in GTPγS assays was determined by plotting the log EC50 for GABA against the log concentration of the positive allosteric modulator in the presence of which the measurement was performed.

T1 sequence (Q9UBS5 15-961 limits assumed): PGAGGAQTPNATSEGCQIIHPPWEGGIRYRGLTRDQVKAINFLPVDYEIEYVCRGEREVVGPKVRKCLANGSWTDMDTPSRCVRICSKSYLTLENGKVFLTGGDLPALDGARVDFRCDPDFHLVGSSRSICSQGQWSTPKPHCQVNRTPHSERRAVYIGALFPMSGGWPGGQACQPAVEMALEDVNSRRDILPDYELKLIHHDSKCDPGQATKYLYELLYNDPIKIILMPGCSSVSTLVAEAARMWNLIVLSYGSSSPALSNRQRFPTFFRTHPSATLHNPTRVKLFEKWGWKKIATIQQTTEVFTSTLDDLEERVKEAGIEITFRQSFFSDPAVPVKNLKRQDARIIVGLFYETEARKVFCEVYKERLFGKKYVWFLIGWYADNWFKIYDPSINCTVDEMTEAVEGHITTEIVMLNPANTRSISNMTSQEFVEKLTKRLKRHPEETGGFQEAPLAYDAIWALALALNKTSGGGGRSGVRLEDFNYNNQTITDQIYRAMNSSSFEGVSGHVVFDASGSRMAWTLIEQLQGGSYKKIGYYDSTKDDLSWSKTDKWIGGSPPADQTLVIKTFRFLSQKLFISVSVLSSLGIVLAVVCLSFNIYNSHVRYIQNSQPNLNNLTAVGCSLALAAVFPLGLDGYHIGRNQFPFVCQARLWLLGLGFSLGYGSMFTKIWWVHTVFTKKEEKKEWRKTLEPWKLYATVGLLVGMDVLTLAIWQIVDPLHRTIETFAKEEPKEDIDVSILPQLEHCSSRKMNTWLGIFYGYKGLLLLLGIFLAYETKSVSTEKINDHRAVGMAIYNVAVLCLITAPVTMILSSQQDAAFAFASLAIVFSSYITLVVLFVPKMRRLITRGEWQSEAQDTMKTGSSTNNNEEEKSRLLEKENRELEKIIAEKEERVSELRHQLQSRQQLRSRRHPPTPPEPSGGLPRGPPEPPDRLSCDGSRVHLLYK
T1 sequence (O75899 42-941): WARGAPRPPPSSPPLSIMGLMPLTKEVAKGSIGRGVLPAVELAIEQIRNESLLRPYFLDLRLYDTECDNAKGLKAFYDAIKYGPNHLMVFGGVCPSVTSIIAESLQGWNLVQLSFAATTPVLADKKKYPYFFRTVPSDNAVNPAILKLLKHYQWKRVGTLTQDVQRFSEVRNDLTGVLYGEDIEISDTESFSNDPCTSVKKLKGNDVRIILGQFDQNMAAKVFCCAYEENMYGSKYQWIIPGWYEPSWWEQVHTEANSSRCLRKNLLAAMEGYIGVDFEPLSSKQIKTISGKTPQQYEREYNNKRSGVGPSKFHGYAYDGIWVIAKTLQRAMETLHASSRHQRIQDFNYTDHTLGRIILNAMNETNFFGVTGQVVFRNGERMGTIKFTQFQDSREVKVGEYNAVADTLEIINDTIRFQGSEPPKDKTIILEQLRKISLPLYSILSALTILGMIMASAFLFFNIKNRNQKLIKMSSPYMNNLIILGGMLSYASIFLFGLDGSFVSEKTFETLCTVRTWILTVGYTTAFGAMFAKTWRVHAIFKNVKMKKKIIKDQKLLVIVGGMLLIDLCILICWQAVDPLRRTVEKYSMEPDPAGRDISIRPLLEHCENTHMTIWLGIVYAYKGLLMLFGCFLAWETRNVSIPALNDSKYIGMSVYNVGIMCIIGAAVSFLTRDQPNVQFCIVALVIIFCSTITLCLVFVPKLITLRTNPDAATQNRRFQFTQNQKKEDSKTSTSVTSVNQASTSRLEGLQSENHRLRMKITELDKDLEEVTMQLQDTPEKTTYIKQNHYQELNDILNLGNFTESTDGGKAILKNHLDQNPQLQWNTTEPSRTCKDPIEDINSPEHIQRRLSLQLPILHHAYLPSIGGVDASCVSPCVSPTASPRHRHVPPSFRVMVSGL

Row | SMILES | EC50 [µM]
1 | CN(C)c1nc(NC(=O)COCc2ccccc2)c(C(=O)OC(C)(C)C)n1-c1ccccc1 [Example 9, tert-butyl 4-{[(benzyloxy)acetyl]amino}-2-(dimethylamino)-1-phenyl-1H-imidazole-5-carboxylate] | 2.47
2 | CN(C)c1nc(NC(=O)C2Cc3ccccc3O2)c(C(=O)OC(C)(C)C)n1-c1ccccc1 (stereo not drawn) [Example 13, tert-butyl 4-[(2,3-dihydro-1-benzofuran-2-ylcarbonyl)amino]-2-(dimethylamino)-1-phenyl-1H-imidazole-5-carboxylate] | 5.13
3 | CCCc1c(C(=O)Nc2nc(N(C)C)n(-c3ccccc3)c2C(=O)OC(C)(C)C)cnn1-c1ccccc1 [Example 44, tert-butyl 2-(dimethylamino)-1-phenyl-4-{[(1-phenyl-5-propyl-1H-pyrazol-4-yl)carbonyl]amino}-1H-imidazole-5-carboxylate] | 2.53
